Values quoted from earlier work in patent US12691091B2, “Compositions comprising cetylated fatty acids for use in the treatment of gastric mucosa, diabetes and high blood glucose levels” (PHARMANUTRA S.P.A., priority 2019, dated 2026).

Conditions: European Union food additive E319

- acceptable daily intake (ADI): 0.7 mg/kg of body weight
SMILES: CC(C)(C)c1cc(O)ccc1O [TBHQ, Tert-butyl-hydroquinone]
